Results taken from the supplement of paper PMC5908809.

Legend:
[1] = tested on: normal primary NK cells, pool 1 (3 donors), resting (IL-2 0 ng/mL); experiment: drug sensitivity score (DSS) (DSS units); higher = more sensitive; extreme values may be limits of the assay; conditions: 72 h
[2] = tested on: YT (IL-2 2.5 ng/mL); experiment: as above; conditions: 72 h
[3] = tested on: DERL-7 (IL-2 2.5 ng/mL); experiment: as above; conditions: 72 h
[4] = tested on: KAI3 (IL-2 2.5 ng/mL); experiment: as above; conditions: 72 h
[5] = tested on: IMC-1 (IL-2 20 ng/mL); experiment: as above; conditions: 72 h
[6] = tested on: normal primary NK cells, pool 1 (3 donors) (IL-2 2.5 ng/mL); experiment: as above; conditions: 72 h
[7] = tested on: normal primary NK cells, pool 2 (3 donors) (IL-2 2.5 ng/mL); experiment: as above; conditions: 72 h
[8] = tested on: NK-92 (IL-2 2.5 ng/mL); experiment: as above; conditions: 72 h
[9] = tested on: NKL (IL-2 2.5 ng/mL); experiment: as above; conditions: 72 h
[10] = tested on: normal primary NK cells, pool 3 (3 donors) (IL-2 2.5 ng/mL); experiment: as above; conditions: 72 h
[11] = tested on: SNK-6 (IL-2 2.5 ng/mL); experiment: as above; conditions: 72 h
[12] = tested on: KHYG-1 (IL-2 2.5 ng/mL); experiment: as above; conditions: 72 h
[13] = tested on: NK-YS (IL-2 2.5 ng/mL); experiment: as above; conditions: 72 h
[14] = tested on: normal primary NK cells, pool 1 (3 donors), resting (IL-2 0 ng/mL); experiment: percent inhibition of viability; higher = more inhibition; conditions: 72 h
[15] = tested on: YT (IL-2 2.5 ng/mL); experiment: as above; conditions: 72 h
[16] = tested on: DERL-7 (IL-2 2.5 ng/mL); experiment: as above; conditions: 72 h
[17] = tested on: KAI3 (IL-2 2.5 ng/mL); experiment: as above; conditions: 72 h
[18] = tested on: IMC-1 (IL-2 20 ng/mL); experiment: as above; conditions: 72 h
[19] = tested on: normal primary NK cells, pool 1 (3 donors) (IL-2 2.5 ng/mL); experiment: as above; conditions: 72 h
[20] = tested on: normal primary NK cells, pool 2 (3 donors) (IL-2 2.5 ng/mL); experiment: as above; conditions: 72 h
[21] = tested on: NK-92 (IL-2 2.5 ng/mL); experiment: as above; conditions: 72 h
[22] = tested on: NKL (IL-2 2.5 ng/mL); experiment: as above; conditions: 72 h
[23] = tested on: normal primary NK cells, pool 3 (3 donors) (IL-2 2.5 ng/mL); experiment: as above; conditions: 72 h
[24] = tested on: SNK-6 (IL-2 2.5 ng/mL); experiment: as above; conditions: 72 h
[25] = tested on: KHYG-1 (IL-2 2.5 ng/mL); experiment: as above; conditions: 72 h
[26] = tested on: NK-YS (IL-2 2.5 ng/mL); experiment: as above; conditions: 72 h
[27] = tested on: normal NK cells expanded with K562-aAPC; experiment: drug sensitivity score (DSS) (DSS units); higher = more sensitive; extreme values may be limits of the assay; conditions: 72 h; IL-2 2.5 ng/mL
Procedure: (§1)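 Drug sensitivity and resistance testing on K562-aAPC-expanded normal NK cells: 5 concentrations (10-fold steps over a 10,000-fold range), 72 h at 37 °C, viability by CellTiter-Glo normalised to DMSO and benzethonium chloride controls; DSS from the fitted curve.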

[28] = tested on: normal NK cells expanded with K562-aAPC; experiment: percent inhibition of viability; higher = more inhibition; conditions: 72 h, IL-2 2.5 ng/mL
Procedure: as §1

Cc1cc(C)c(/C=C2\C(=O)Nc3ccccc32)[nH]1 [Semaxanib] (max concentration tested 10000 nM)
drug sensitivity score [1]: 0
drug sensitivity score [2]: 0
drug sensitivity score [3]: 0
drug sensitivity score [4]: 0.08
drug sensitivity score [5]: 0
drug sensitivity score [6]: 0
drug sensitivity score [7]: 0
drug sensitivity score [8]: 0
drug sensitivity score [9]: 0
drug sensitivity score [10]: 0
drug sensitivity score [11]: 0
drug sensitivity score [12]: 0
drug sensitivity score [13]: 0.03
percent inhibition of viability ([14]; 1 nM): -26.7%
percent inhibition of viability ([14]; 10 nM): -24.9%
percent inhibition of viability ([14]; 100 nM): -16.6%
percent inhibition of viability ([14]; 1000 nM): -29.6%
percent inhibition of viability ([14]; 10000 nM): -4.81%
percent inhibition of viability ([15]; 1 nM): 1.76%
percent inhibition of viability ([15]; 10 nM): -2.52%
percent inhibition of viability ([15]; 100 nM): 0.26%
percent inhibition of viability ([15]; 1000 nM): 5.87%
percent inhibition of viability ([15]; 10000 nM): -1.2%
percent inhibition of viability ([16]; 1 nM): -12.8%
percent inhibition of viability ([16]; 10 nM): -10.6%
percent inhibition of viability ([16]; 100 nM): -9.72%
percent inhibition of viability ([16]; 1000 nM): -14.2%
percent inhibition of viability ([16]; 10000 nM): -12.3%
percent inhibition of viability ([17]; 1 nM): -2.48%
percent inhibition of viability ([17]; 10 nM): -0.88%
percent inhibition of viability ([17]; 100 nM): 2.8%
percent inhibition of viability ([17]; 1000 nM): 17.6%
percent inhibition of viability ([17]; 10000 nM): 4.62%
percent inhibition of viability ([18]; 1 nM): -3.23%
percent inhibition of viability ([18]; 10 nM): 1.84%
percent inhibition of viability ([18]; 100 nM): -5.66%
percent inhibition of viability ([18]; 1000 nM): -0.69%
percent inhibition of viability ([18]; 10000 nM): -8.53%
percent inhibition of viability ([19]; 1 nM): -10.6%
percent inhibition of viability ([19]; 10 nM): -9.74%
percent inhibition of viability ([19]; 100 nM): -0.67%
percent inhibition of viability ([19]; 1000 nM): -9.25%
percent inhibition of viability ([19]; 10000 nM): -0.4%
percent inhibition of viability ([20]; 1 nM): -8.9%
percent inhibition of viability ([20]; 10 nM): -5%
percent inhibition of viability ([20]; 100 nM): -12.5%
percent inhibition of viability ([20]; 1000 nM): -15.6%
percent inhibition of viability ([20]; 10000 nM): 0.7%
percent inhibition of viability ([21]; 1 nM): -9.95%
percent inhibition of viability ([21]; 10 nM): -0.12%
percent inhibition of viability ([21]; 100 nM): 2.69%
percent inhibition of viability ([21]; 1000 nM): -5.85%
percent inhibition of viability ([21]; 10000 nM): -9.23%
percent inhibition of viability ([22]; 1 nM): -13.9%
percent inhibition of viability ([22]; 10 nM): -12.4%
percent inhibition of viability ([22]; 100 nM): -11.4%
percent inhibition of viability ([22]; 1000 nM): -6.8%
percent inhibition of viability ([22]; 10000 nM): -21.5%
percent inhibition of viability ([23]; 1 nM): -10.1%
percent inhibition of viability ([23]; 10 nM): -7.93%
percent inhibition of viability ([23]; 100 nM): -13.2%
percent inhibition of viability ([23]; 1000 nM): -15.4%
percent inhibition of viability ([23]; 10000 nM): -11%
percent inhibition of viability ([24]; 1 nM): 11.5%
percent inhibition of viability ([24]; 10 nM): 16.6%
percent inhibition of viability ([24]; 100 nM): -2.4%
percent inhibition of viability ([24]; 1000 nM): -25%
percent inhibition of viability ([24]; 10000 nM): -71.7%
percent inhibition of viability ([25]; 1 nM): -1.36%
percent inhibition of viability ([25]; 10 nM): 0.11%
percent inhibition of viability ([25]; 100 nM): 0.12%
percent inhibition of viability ([25]; 1000 nM): 6.34%
percent inhibition of viability ([25]; 10000 nM): 1.2%
percent inhibition of viability ([26]; 1 nM): -0.44%
percent inhibition of viability ([26]; 10 nM): 2.71%
percent inhibition of viability ([26]; 100 nM): 2.82%
percent inhibition of viability ([26]; 1000 nM): 11.1%
percent inhibition of viability ([26]; 10000 nM): 7.36%
drug sensitivity score [27]: 0
percent inhibition of viability ([28]; 1 nM): -3.94%
percent inhibition of viability ([28]; 10 nM): -4.89%
percent inhibition of viability ([28]; 100 nM): -0.87%
percent inhibition of viability ([28]; 1000 nM): -2.28%
percent inhibition of viability ([28]; 10000 nM): -6.44%
